Measured values reported in ChEMBL document CHEMBL6134781, “In vitro identification of oridonin hybrids as potential anti-TNBC agents inducing cell cycle arrest and apoptosis by regulation of p21, γH2AX and cleaved PARP” (RSC Med Chem, 2024).

What was measured:
HCC1806 [1] = experiment: Induction of cell cycle arrest in human HCC1806 cells assessed as increase in p21 level incubated for 16 hrs by Western blot analysis; type: functional, cell-based; conditions: dose 1-3 µM
MDA-MB-231 [2] = experiment: Induction of apoptosis in human MDA-MB-231 cells assessed as necrotic cells at 1 uM incubated for 16 hrs by Annexin V-FITC/PI staining based flow cytometry (reference value: 3.89 %); type: functional
[3] = Stability in human plasma assessed as half life at 100 uM by LC-MS/MS analysis; type: ADME, cell-free
MDA-MB-231 [4] = experiment: Cytotoxicity against human MDA-MB-231 cells assessed as inhibition of cell viability incubated for 72 hrs by SRB assay; type: functional, cell-based; conditions: MDA-MB-231, 72 h
MDA-MB-231 [5] = experiment: Induction of apoptosis in human MDA-MB-231 cells assessed as necrotic cells at 3 uM incubated for 16 hrs by Annexin V-FITC/PI staining based flow cytometry (reference value: 3.89 %); type: functional
MDA-MB-468 [6] = experiment: Induction of apoptosis in human MDA-MB-468 cells assessed as necrotic cells at 3 uM incubated for 24 hrs by Annexin V-FITC/PI staining based flow cytometry (reference value: 4.11 %); type: functional
HCC1806 [7] = experiment: Cytotoxicity against human HCC1806 cells assessed as inhibition of cell viability incubated for 72 hrs by SRB assay; type: functional, cell-based; conditions: HCC1806, 72 h
MDA-MB-231 [8] = experiment: Induction of cell cycle arrest in human MDA-MB-231 cells assessed as accumulation at G2/M phase incubated for 16 hrs by PI staining based flow cytometry; type: functional; conditions: dose 1-3 µM
HCC1937 [9] = experiment: Induction of apoptosis in human HCC1937 cells assessed as late apoptotic cells at 1 uM incubated for 24 hrs by Annexin V-FITC/PI staining based flow cytometry (reference value: 1.45 %); type: functional
HCC1806 [10] = experiment: Induction of apoptosis in human HCC1806 cells assessed as necrotic cells at 1 uM incubated for 24 hrs by Annexin V-FITC/PI staining based flow cytometry (reference value: 0.049 %); type: functional
HCC1806 [11] = experiment: Induction of apoptosis in human HCC1806 cells assessed as late apoptotic cells at 1 uM incubated for 24 hrs by Annexin V-FITC/PI staining based flow cytometry (reference value: 1.48 %); type: functional
HCC1806 [12] = experiment: Induction of cell cycle arrest in human HCC1806 cells assessed as decrease in accumulation at S phase incubated for 16 hrs by PI staining based flow cytometry; type: functional; conditions: dose 1-3 µM
HCC1937 [13] = experiment: Induction of apoptosis in human HCC1937 cells assessed as viable cells at 1 uM incubated for 24 hrs by Annexin V-FITC/PI staining based flow cytometry (reference value: 97.2 %); type: functional; conditions: read-out: Activity
HCC1937 [14] = experiment: Induction of apoptosis in human HCC1937 cells assessed as necrotic cells at 3 uM incubated for 24 hrs by Annexin V-FITC/PI staining based flow cytometry (reference value: 0.58 %); type: functional
HCC1806 [15] = experiment: Induction of DNA damage in human HCC1806 cells assessed as increase in gamma-H2AX level incubated for 24 hrs by Western blot analysis; type: functional, cell-based; conditions: dose 1-3 µM
MDA-MB-231 [16] = experiment: Induction of apoptosis in human MDA-MB-231 cells assessed as viable cells at 1 uM incubated for 16 hrs by Annexin V-FITC/PI staining based flow cytometry (reference value: 89.5 %); type: functional; conditions: read-out: Activity
MDA-MB-468 [17] = experiment: Effect on p21 expression in human MDA-MB-468 cells at 1 to 3 uM incubated for 16 hrs by Western blot analysis; type: functional, cell-based; conditions: dose 1-3 µM
HCC1806 [18] = experiment: Induction of apoptosis in human HCC1806 cells assessed as necrotic cells at 3 uM incubated for 24 hrs by Annexin V-FITC/PI staining based flow cytometry (reference value: 0.049 %); type: functional
MDA-MB-468 [19] = experiment: Induction of DNA damage in human MDA-MB-468 cells assessed as increase in gamma-H2AX level incubated for 24 hrs by Western blot analysis; type: functional, cell-based; conditions: dose 1-3 µM
HCC1937 [20] = experiment: Induction of apoptosis in human HCC1937 cells assessed as viable cells at 3 uM incubated for 24 hrs by Annexin V-FITC/PI staining based flow cytometry (reference value: 97.2 %); type: functional; conditions: read-out: Activity
MDA-MB-231 [21] = experiment: Induction of apoptosis in human MDA-MB-231 cells assessed as late apoptotic cells at 1 uM incubated for 16 hrs by Annexin V-FITC/PI staining based flow cytometry (reference value: 4.62 %); type: functional

half-life at 100 µM [3]: 2.4 h
Structure (SMILES): C=C1C(=O)[C@]23[C@H](OC(=O)C45CC6CC(CC(C6)C4)C5)[C@H]1CC[C@H]2[C@@]12CO[C@]3(O)[C@@H](O)[C@@H]1C(C)(C)CC[C@@H]2O
Activity (HCC1806 [1]): Dose-dependent-effect
Activity (MDA-MB-231 [2]): 0.32%
IC50 (MDA-MB-231 [4]): 400 nM
Activity (MDA-MB-231 [5]): 4.46%
Activity (MDA-MB-468 [6]): 0.44%
IC50 (HCC1806 [7]): 1400 nM
Activity (MDA-MB-231 [8]): Dose-dependent-effect
Activity (HCC1937 [9]): 2.34%
Activity (HCC1806 [10]): 0.088%
Activity (HCC1806 [11]): 2.8%
Activity (HCC1806 [12]): Dose-dependent-effect
viability at 1 µM (HCC1937 [13]): 96.1%
Activity (HCC1937 [14]): 0.61%
Activity (HCC1806 [15]): Dose-dependent-effect
viability at 1 µM (MDA-MB-231 [16]): 93.5%
Activity (MDA-MB-468 [17]): No effect
Activity (HCC1806 [18]): 0.091%
Activity (MDA-MB-468 [19]): Dose-dependent-effect
viability at 3 µM (HCC1937 [20]): 71.1%
Activity (MDA-MB-231 [21]): 1.92%
